# Test results: patent US11021457B2, “Class of isoindolone-imide ring-1,3-dione-2-ene compounds, composition and use thereof” (WIGEN BIOMEDICINE TECHNOLOGY (SHANGHAI) CO., LTD., priority 2017, dated 2021)
# Experiments:
# Format in all cases: cell-based
# Conditions in all cases: compound concentration 50 μM, 72 hours
# K562 = test: Inhibition of tumor cell proliferation, CellTiter-Glo, K562
# Protocol: (§1) For various cell lines, the corresponding complete medium was used, and culture was carried out in an incubator at 37° C. with 5% CO2. The cells were counted, and inoculated into a 96-well plate at 2000-10000 cells/100 μl per well according to the cell volume and growth rate. The suspended cells were treated immediately, and the adherent cells were treated after adherence. The CellTiter-Glo method was used to detect the changes in cell viability 72 hours after the administration, and the cell survival rate at different concentrations was calculated by a formula: Survival rate (%)=(RLU of treatment well−RLU of blank well)/(RLU of control well−RLU of blank well)×100.
# (§2) Method for expressing the inhibitory activity of the compounds against the proliferation of tumor cells: Evaluation was made based on the cell survival rate at a compound concentration of 50 μM. 60≤survival rate (%)<90 is considered to have low inhibitory activity against the proliferation of tumor cells (+); 30<survival rate (%)≤60 is considered to have moderate inhibitory activity against the proliferation of tumor cells (++); and survival rate (%)≤30 is considered to have high inhibitory activity against the proliferation of tumor cells (+++).
# SU-DHL6 = test: Inhibition of tumor cell proliferation, CellTiter-Glo, SU-DHL6
# Protocol: as §1, §2
# BxPC-3 = test: Inhibition of tumor cell proliferation, CellTiter-Glo, BxPC-3
# Protocol: as §1, §2
# A549 = test: Inhibition of tumor cell proliferation, CellTiter-Glo, A549
# Protocol: as §1, §2
# MDA-MB-453 = test: Inhibition of tumor cell proliferation, CellTiter-Glo, MDA-MB-453
# Protocol: as §1, §2
# RPMI-8226 = test: Inhibition of tumor cell proliferation, CellTiter-Glo, RPMI-8226
# Protocol: as §1, §2
Structure (SMILES),Inhibitory activity against proliferation (cell survival rate) K562 (K562),Inhibitory activity against proliferation (cell survival rate) SU-DHL6 (SU-DHL6),Inhibitory activity against proliferation (cell survival rate) BxPC-3 (BxPC-3),Inhibitory activity against proliferation (cell survival rate) A549 (A549),Inhibitory activity against proliferation (cell survival rate) MDA-MB-453 (MDA-MB-453),Inhibitory activity against proliferation (cell survival rate) RPMI-8226 (RPMI-8226)
O=C1CCC(N2C(=O)c3cccc(NC(=O)CN4CCN(CCNC=C5C(=O)CC(c6ccccc6)CC5=O)CC4)c3C2=O)C(=O)N1 (stereo not drawn) [Compound 55],+ (60≤survival rate (%)<90),+++ (survival rate (%)≤30),+ (60≤survival rate (%)<90),+++ (survival rate (%)≤30),++ (30<survival rate (%)≤60),++ (30<survival rate (%)≤60)
O=C1CCC(N2Cc3c(NC(=O)CCC(=O)OCCN4CCN(CCNC=C5C(=O)CC(c6ccccc6)CC5=O)CC4)cccc3C2=O)C(=O)N1 (stereo not drawn) [Compound 56],+ (60≤survival rate (%)<90),+++ (survival rate (%)≤30),+ (60≤survival rate (%)<90),+++ (survival rate (%)≤30),+++ (survival rate (%)≤30),+ (60≤survival rate (%)<90)
O=C1CCC(N2C(=O)c3cccc(NC(=O)CCC(=O)OCCN4CCN(CCNC=C5C(=O)CC(c6ccccc6)CC5=O)CC4)c3C2=O)C(=O)N1 (stereo not drawn) [Compound 57],+ (60≤survival rate (%)<90),+++ (survival rate (%)≤30),+ (60≤survival rate (%)<90),+ (60≤survival rate (%)<90),+ (60≤survival rate (%)<90),+ (60≤survival rate (%)<90)
O=C1CCC(N2Cc3c(NC(=O)C4CCN(CCNC=C5C(=O)CC(c6ccccc6)CC5=O)CC4)cccc3C2=O)C(=O)N1 (stereo not drawn) [Compound 61],+ (60≤survival rate (%)<90),++ (30<survival rate (%)≤60),+ (60≤survival rate (%)<90),+ (60≤survival rate (%)<90),+++ (survival rate (%)≤30),+ (60≤survival rate (%)<90)
O=C1CCC(N2Cc3c(NC(=O)c4cnc(NC=C5C(=O)CC(c6ccccc6)CC5=O)s4)cccc3C2=O)C(=O)N1 (stereo not drawn) [Compound 62],+ (60≤survival rate (%)<90),++ (30<survival rate (%)≤60),++ (30<survival rate (%)≤60),++ (30<survival rate (%)≤60),+++ (survival rate (%)≤30),+++ (survival rate (%)≤30)
O=C1CCC(N2C(=O)c3cccc(NC(=O)c4cnc(NC=C5C(=O)CC(c6ccccc6)CC5=O)s4)c3C2=O)C(=O)N1 (stereo not drawn) [Compound 63],+++ (survival rate (%)≤30),++ (30<survival rate (%)≤60),+ (60≤survival rate (%)<90),+ (60≤survival rate (%)<90),+ (60≤survival rate (%)<90),++ (30<survival rate (%)≤60)
O=C1CCC(N2Cc3c(NC(=O)[C@@H]4C[C@H](O)CN4CCNC=C4C(=O)CC(c5ccccc5)CC4=O)cccc3C2=O)C(=O)N1 (stereo partly drawn) [Compound 65],+++ (survival rate (%)≤30),+++ (survival rate (%)≤30),+ (60≤survival rate (%)<90),+++ (survival rate (%)≤30),+++ (survival rate (%)≤30),+++ (survival rate (%)≤30)
O=C1CCC(N2Cc3c(NC(=O)c4ccc(NC=C5C(=O)CC(c6ccccc6)CC5=O)nc4)cccc3C2=O)C(=O)N1 (stereo not drawn) [Compound 66],+++ (survival rate (%)≤30),+++ (survival rate (%)≤30),+ (60≤survival rate (%)<90),+++ (survival rate (%)≤30),++ (30<survival rate (%)≤60),+ (60≤survival rate (%)<90)
O=C1CCC(N2Cc3c(NC(=O)c4cccnc4NC=C4C(=O)CC(c5ccccc5)CC4=O)cccc3C2=O)C(=O)N1 (stereo not drawn) [Compound 67],+++ (survival rate (%)≤30),+++ (survival rate (%)≤30),+ (60≤survival rate (%)<90),+++ (survival rate (%)≤30),++ (30<survival rate (%)≤60),+++ (survival rate (%)≤30)
O=C1CCC(N2C(=O)c3cccc(NS(=O)(=O)N4CCN(CCNC=C5C(=O)CC(c6ccccc6)CC5=O)CC4)c3C2=O)C(=O)N1 (stereo not drawn) [Compound 71],+++ (survival rate (%)≤30),+++ (survival rate (%)≤30),+ (60≤survival rate (%)<90),+++ (survival rate (%)≤30),+++ (survival rate (%)≤30),+++ (survival rate (%)≤30)
O=C1CCC(N2Cc3c(NS(=O)(=O)N4CCN(CCNC=C5C(=O)CC(c6ccccc6)CC5=O)CC4)cccc3C2=O)C(=O)N1 (stereo not drawn) [Compound 72],+++ (survival rate (%)≤30),+++ (survival rate (%)≤30),+ (60≤survival rate (%)<90),+ (60≤survival rate (%)<90),+ (60≤survival rate (%)<90),+ (60≤survival rate (%)<90)
